The NIST ThermoML archive (doi:10.1021/je060271a)
Numbers after ± are expanded uncertainties.

Details: 323.14 K, Liquid, Vibrating tube method

CCCCCCC(=O)OCC(COC(=O)CCCCCC)(COC(=O)CCCCCC)COC(=O)CCCCCC [pentaerythritol tetraheptanoate]
Details | mass density [kg/m3]
141.6 kPa | 955.8 ± 1.2
142.1 kPa | 955.7 ± 1.2
142.7 kPa | 955.7 ± 1.2
143.5 kPa | 955.7 ± 1.2
146.5 kPa | 955.7 ± 1.2
148.2 kPa | 955.7 ± 1.2
149.1 kPa | 955.7 ± 1.2
149.8 kPa | 955.7 ± 1.2
150.7 kPa | 955.7 ± 1.2
151.7 kPa | 955.7 ± 1.2
160.6 kPa | 955.8 ± 1.2
191.9 kPa | 955.7 ± 1.2
198.5 kPa | 955.7 ± 1.2
199.7 kPa | 955.7 ± 1.2
201.6 kPa | 955.8 ± 1.2
203.3 kPa | 955.6 ± 1.2
206.3 kPa | 955.6 ± 1.2
208.7 kPa | 955.6 ± 1.2
211.5 kPa | 955.7 ± 1.2
213.8 kPa | 955.8 ± 1.2
216.2 kPa | 955.6 ± 1.2
219 kPa | 955.8 ± 1.2
222.1 kPa | 955.7 ± 1.2
224.9 kPa | 955.7 ± 1.2
228.5 kPa | 955.7 ± 1.2
231.8 kPa | 955.6 ± 1.2
234.6 kPa | 955.7 ± 1.2
237.8 kPa | 955.7 ± 1.2
248.7 kPa | 955.8 ± 1.2
252.3 kPa | 955.7 ± 1.2
256.9 kPa | 955.6 ± 1.2
260.9 kPa | 955.8 ± 1.2
269.9 kPa | 955.8 ± 1.2
274.2 kPa | 955.7 ± 1.2
279.5 kPa | 955.8 ± 1.2
284.3 kPa | 955.8 ± 1.2
289.2 kPa | 955.7 ± 1.2
294.6 kPa | 955.8 ± 1.2
300.8 kPa | 955.7 ± 1.2
306.2 kPa | 955.9 ± 1.2
313.2 kPa | 955.9 ± 1.2
325.7 kPa | 955.8 ± 1.2
332.1 kPa | 955.9 ± 1.2
355.4 kPa | 955.9 ± 1.2
382.3 kPa | 955.9 ± 1.2
391.6 kPa | 956 ± 1.2
402.9 kPa | 955.9 ± 1.2
412.9 kPa | 955.8 ± 1.2
423.9 kPa | 955.8 ± 1.2
437.3 kPa | 955.8 ± 1.2
478.1 kPa | 956 ± 1.2
585.3 kPa | 955.9 ± 1.2
606 kPa | 955.9 ± 1.2
632.9 kPa | 956 ± 1.2
657.4 kPa | 955.9 ± 1.2
683.2 kPa | 956 ± 1.2
747.4 kPa | 956.1 ± 1.2
859.8 kPa | 956 ± 1.2
901.9 kPa | 956.1 ± 1.2
946 kPa | 956.2 ± 1.2
1003.2 kPa | 956.3 ± 1.2
1051.3 kPa | 956.3 ± 1.2
1084.8 kPa | 956.4 ± 1.2
1163.8 kPa | 956.3 ± 1.2
1174 kPa | 956.4 ± 1.2
1215.6 kPa | 956.4 ± 1.2
1248.5 kPa | 956.5 ± 1.2
1269 kPa | 956.4 ± 1.2
1336.1 kPa | 956.5 ± 1.2
1342 kPa | 956.5 ± 1.2
1347.9 kPa | 956.5 ± 1.2
1355 kPa | 956.5 ± 1.2
1360.7 kPa | 956.6 ± 1.2
1366.8 kPa | 956.5 ± 1.2
1374.4 kPa | 956.5 ± 1.2
1380.5 kPa | 956.5 ± 1.2
1386.8 kPa | 956.6 ± 1.2
1393.9 kPa | 956.6 ± 1.2
1400.3 kPa | 956.5 ± 1.2
1406.6 kPa | 956.7 ± 1.2
1414.7 kPa | 956.6 ± 1.2
1515.9 kPa | 956.7 ± 1.2
1530.9 kPa | 956.7 ± 1.2
1537.8 kPa | 956.7 ± 1.2
1547 kPa | 956.7 ± 1.2
1554.5 kPa | 956.7 ± 1.2
1561.9 kPa | 956.7 ± 1.2
1571 kPa | 956.8 ± 1.2
1578.6 kPa | 956.7 ± 1.2
1586.4 kPa | 956.6 ± 1.2
1596.1 kPa | 956.6 ± 1.2
1604 kPa | 956.7 ± 1.2
1612.1 kPa | 956.7 ± 1.2
1637.6 kPa | 956.7 ± 1.2
1645.8 kPa | 956.8 ± 1.2
1655.5 kPa | 956.8 ± 1.2
1664.2 kPa | 956.7 ± 1.2
1672.2 kPa | 956.7 ± 1.2
1680.7 kPa | 956.8 ± 1.2
1690.9 kPa | 956.8 ± 1.2
1699.8 kPa | 956.8 ± 1.2
1708.3 kPa | 956.8 ± 1.2
1756.9 kPa | 956.8 ± 1.2
1766.2 kPa | 956.7 ± 1.2
1784.8 kPa | 956.7 ± 1.2
1795.8 kPa | 956.8 ± 1.2
1805 kPa | 956.9 ± 1.2
1816.8 kPa | 956.8 ± 1.2
1826.5 kPa | 956.8 ± 1.2
1836.5 kPa | 956.8 ± 1.2
1847 kPa | 956.8 ± 1.2
1857.2 kPa | 957 ± 1.2
